Results as given in patent publication US9113629B2, “4-amino-6-(4-substituted-phenyl)-picolinates and 6-amino-2-(4-substituted-phenyl)-pyrimidine-4-carboxylates and their use as herbicides” (DOW AGROSCIENCES LLC, priority 2013, dated 2015).
Read-outs that look alike come from different tables or passages of the source.

Key:
[1] = tested on: Key Broadleaf Weed and Crop Species; assay: Post-emergent Test II herbicidal activity (Table 5); format: in vivo; details: post-emergence, 336 h, 14 days after application; for pest or weed control at 70 g/ha: application rate 70 g ai/ha; for pest or weed control at 140 g/ha: application rate 140 g ai/ha
Outline: (§1)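 Visual injury ratings (0 = no injury, 100 = complete kill) were taken 14 d after treatment, relative to untreated plants. Seedlings at the first–second true leaf stage received overhead spray at 187 L/ha; the highest rate was serially diluted to ½×, ¼×, ⅛× and 1/16×.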

[2] = tested on: Key Grass and Sedge Weeds as well as Grass Crops; assay: Post-emergent Test II herbicidal activity (Table 6); format: in vivo; details: post-emergence, 336 h
Outline: as §1

[3] = ABUTH: velvetleaf (Abutilon theophrasti), read-out: Visual Growth Reduction (%) 14 Days After Application, ABUTH
[4] = AMARE: redroot pigweed (Amaranthus retroflexus), read-out: Visual Growth Reduction (%) 14 Days After Application, AMARE
[5] = BRSNN: oilseed-rape, canola (Brassica napus), read-out: Visual Growth Reduction (%) 14 Days After Application, BRSNN
[6] = CHEAL: lambsquarters (Chenopodium album), read-out: Visual Growth Reduction (%) 14 Days After Application, CHEAL
[7] = EPHHL: wild poinsettia (Euphorbia heterophylla), read-out: Visual Growth Reduction (%) 14 Days After Application, EPHHL
[8] = HELAN: sunflower (Helianthus annuus), read-out: Visual Growth Reduction (%) 14 Days After Application, HELAN
[9] = VIOTR: wild pansy (Viola tricolor), read-out: Visual Growth Reduction (%) 14 Days After Application, VIOTR
[10] = CYPES: yellow nutsedge (Cyperus esculentus), 70 g ai/ha, read-out: Visual Growth Reduction (%) 14 Days After Application, CYPES
[11] = CYPES: yellow nutsedge (Cyperus esculentus), 140 g ai/ha, read-out: Visual Growth Reduction (%) 14 Days After Application, CYPES
[12] = DIGSA: crabgrass (Digitaria sanguinalis), 70 g ai/ha, read-out: Visual Growth Reduction (%) 14 Days After Application, DIGSA
[13] = DIGSA: crabgrass (Digitaria sanguinalis), 140 g ai/ha, read-out: Visual Growth Reduction (%) 14 Days After Application, DIGSA
[14] = ECHCG: barnyardgrass (Echinochloa crus-galli), 70 g ai/ha, read-out: Visual Growth Reduction (%) 14 Days After Application, ECHCG
[15] = ECHCG: barnyardgrass (Echinochloa crus-galli), 140 g ai/ha, read-out: Visual Growth Reduction (%) 14 Days After Application, ECHCG
[16] = ORYSA: rice (Oryza sativa), crop, 70 g ai/ha, read-out: Visual Growth Reduction (%) 14 Days After Application, ORYSA
[17] = ORYSA: rice (Oryza sativa), crop, 140 g ai/ha, read-out: Visual Growth Reduction (%) 14 Days After Application, ORYSA
[18] = SETFA: giant foxtail (Setaria faberi), 70 g ai/ha, read-out: Visual Growth Reduction (%) 14 Days After Application, SETFA
[19] = SETFA: giant foxtail (Setaria faberi), 140 g ai/ha, read-out: Visual Growth Reduction (%) 14 Days After Application, SETFA
[20] = SORVU: grain sorghum (Sorghum vulgare), 70 g ai/ha, read-out: Visual Growth Reduction (%) 14 Days After Application, SORVU
[21] = SORVU: grain sorghum (Sorghum vulgare), 140 g ai/ha, read-out: Visual Growth Reduction (%) 14 Days After Application, SORVU
[22] = TRZSS (wheat, Triticum aestivum), crop, 70 g ai/ha, read-out: Visual Growth Reduction (%) 14 Days After Application, TRZSS
[23] = TRZSS (wheat, Triticum aestivum), crop, 140 g ai/ha, read-out: Visual Growth Reduction (%) 14 Days After Application, TRZSS
[24] = ZEAMX: maize, corn (Zea mays), crop, 70 g ai/ha, read-out: Visual Growth Reduction (%) 14 Days After Application, ZEAMX
[25] = ZEAMX: maize, corn (Zea mays), crop, 140 g ai/ha, read-out: Visual Growth Reduction (%) 14 Days After Application, ZEAMX

melting point [°C]	SMILES	pest or weed control at 70 g/ha [1, 3] [%]	pest or weed control at 140 g/ha [1, 3] [%]	pest or weed control at 70 g/ha [1, 4] [%]	pest or weed control at 140 g/ha [1, 4] [%]	pest or weed control at 70 g/ha [1, 5] [%]	pest or weed control at 140 g/ha [1, 5] [%]	pest or weed control at 70 g/ha [1, 6] [%]	pest or weed control at 140 g/ha [1, 6] [%]	pest or weed control at 70 g/ha [1, 7] [%]	pest or weed control at 140 g/ha [1, 7] [%]	pest or weed control at 70 g/ha [1, 8] [%]	pest or weed control at 140 g/ha [1, 8] [%]	pest or weed control at 70 g/ha [1, 9] [%]	pest or weed control at 140 g/ha [1, 9] [%]	pest or weed control at 70 g/ha [2, 10] [%]	pest or weed control at 140 g/ha [2, 11] [%]	pest or weed control at 70 g/ha [2, 12] [%]	pest or weed control at 140 g/ha [2, 13] [%]	pest or weed control at 70 g/ha [2, 14] [%]	other results
136 to 138	COC(=O)c1nc(-c2ccc(I)cc2F)c(F)c(N)c1Cl [Compound 9]	0 to 29	0 to 29	0 to 29	0 to 29	0 to 29	0 to 29	0 to 29	0 to 29	0 to 29	0 to 29	0 to 29	0 to 29	0 to 29	0 to 29	0 to 29	0 to 29	0 to 29	0 to 29	0 to 29	pest or weed control at 140 g/ha [2, 15]: 0 to 29%; pest or weed control at 70 g/ha [2, 16]: 0 to 29%; pest or weed control at 140 g/ha [2, 17]: 0 to 29%; pest or weed control at 70 g/ha [2, 18]: 0 to 29%; pest or weed control at 140 g/ha [2, 19]: 0 to 29%; pest or weed control at 70 g/ha [2, 20]: 0 to 29%; pest or weed control at 140 g/ha [2, 21]: 0 to 29%; pest or weed control at 70 g/ha [2, 22]: 0 to 29%; pest or weed control at 140 g/ha [2, 23]: 0 to 29%; pest or weed control at 70 g/ha [2, 24]: 0 to 29%; pest or weed control at 140 g/ha [2, 25]: 0 to 29%
113 to 115	Nc1c(F)c(-c2ccc(OC(F)F)c(F)c2F)nc(C(=O)O)c1Cl [Compound 19]	0 to 29	0 to 29	0 to 29	0 to 29	0 to 29	60 to 74	0 to 29	0 to 29	0 to 29	30 to 44	75 to 84	75 to 84	0 to 29	0 to 29	–	–	–	–	–	pest or weed control at 70 g/ha ([2]; Triticum aestivum, TRZSS (wheat), application rate 70 g ai/ha, read-out: Visual Growth Reduction (%) 14 Days After Application, TRZSS): 0 to 29%; pest or weed control at 140 g/ha ([2]; Triticum aestivum, TRZSS (wheat), application rate 140 g ai/ha, read-out: Visual Growth Reduction (%) 14 Days After Application, TRZSS): 0 to 29%; pest or weed control at 70 g/ha ([2]; CYPES: yellow nutsedge (Cyperus esculentus), application rate 70 g ai/ha, read-out: Visual Growth Reduction (%) 14 Days After Application, CYPES): 0 to 29%; pest or weed control at 140 g/ha ([2]; CYPES: yellow nutsedge (Cyperus esculentus), application rate 140 g ai/ha, read-out: Visual Growth Reduction (%) 14 Days After Application, CYPES): 0 to 29%; pest or weed control at 70 g/ha ([2]; DIGSA: crabgrass (Digitaria sanguinalis), application rate 70 g ai/ha, read-out: Visual Growth Reduction (%) 14 Days After Application, DIGSA): 0 to 29%; pest or weed control at 140 g/ha ([2]; DIGSA: crabgrass (Digitaria sanguinalis), application rate 140 g ai/ha, read-out: Visual Growth Reduction (%) 14 Days After Application, DIGSA): 0 to 29%; pest or weed control at 70 g/ha ([2]; ECHCG: barnyardgrass (Echinochloa crus-galli), application rate 70 g ai/ha, read-out: Visual Growth Reduction (%) 14 Days After Application, ECHCG): 0 to 29%; pest or weed control at 140 g/ha ([2]; ECHCG: barnyardgrass (Echinochloa crus-galli), application rate 140 g ai/ha, read-out: Visual Growth Reduction (%) 14 Days After Application, ECHCG): 0 to 29%; pest or weed control at 70 g/ha ([2]; ORYSA: rice (Oryza sativa), application rate 70 g ai/ha, read-out: Visual Growth Reduction (%) 14 Days After Application, ORYSA): 0 to 29%; pest or weed control at 140 g/ha ([2]; ORYSA: rice (Oryza sativa), application rate 140 g ai/ha, read-out: Visual Growth Reduction (%) 14 Days After Application, ORYSA): 0 to 29%; pest or weed control at 70 g/ha ([2]; SETFA: giant foxtail (Setaria faberi), application rate 70 g ai/ha, read-out: Visual Growth Reduction (%) 14 Days After Application, SETFA): 0 to 29%; pest or weed control at 140 g/ha ([2]; SETFA: giant foxtail (Setaria faberi), application rate 140 g ai/ha, read-out: Visual Growth Reduction (%) 14 Days After Application, SETFA): 0 to 29%; pest or weed control at 70 g/ha ([2]; SORVU: grain sorghum (Sorghum vulgare), application rate 70 g ai/ha, read-out: Visual Growth Reduction (%) 14 Days After Application, SORVU): 0 to 29%; pest or weed control at 140 g/ha ([2]; SORVU: grain sorghum (Sorghum vulgare), application rate 140 g ai/ha, read-out: Visual Growth Reduction (%) 14 Days After Application, SORVU): 0 to 29%; pest or weed control at 70 g/ha ([2]; ZEAMX: maize, corn (Zea mays), application rate 70 g ai/ha, read-out: Visual Growth Reduction (%) 14 Days After Application, ZEAMX): 0 to 29%; pest or weed control at 140 g/ha ([2]; ZEAMX: maize, corn (Zea mays), application rate 140 g ai/ha, read-out: Visual Growth Reduction (%) 14 Days After Application, ZEAMX): 0 to 29%
117 to 120	Nc1c(F)c(-c2ccc(Br)c(F)c2)nc(C(=O)O)c1Cl [Compound 21]	95 to 100	95 to 100	95 to 100	95 to 100	95 to 100	95 to 100	95 to 100	95 to 100	95 to 100	95 to 100	95 to 100	95 to 100	95 to 100	95 to 100	95 to 100	95 to 100	75 to 84	75 to 84	95 to 100	pest or weed control at 140 g/ha [2, 15]: 95 to 100%; pest or weed control at 70 g/ha [2, 16]: 0 to 29%; pest or weed control at 140 g/ha [2, 17]: 0 to 29%; pest or weed control at 70 g/ha [2, 18]: 95 to 100%; pest or weed control at 140 g/ha [2, 19]: 95 to 100%; pest or weed control at 70 g/ha [2, 20]: 95 to 100%; pest or weed control at 140 g/ha [2, 21]: 95 to 100%; pest or weed control at 70 g/ha [2, 22]: 60 to 74%; pest or weed control at 140 g/ha [2, 23]: 60 to 74%; pest or weed control at 70 g/ha [2, 24]: 95 to 100%; pest or weed control at 140 g/ha [2, 25]: 95 to 100%
